“Also recorded” adds a separate entry of the source.

A short description of data set [1]: Biotin ELISA, binding of biotinylated peptides to etched titanium slices. To be noted: for pEC50 binding affinity to titanium / EC50: biotinylated peptides, etched titanium slices, 2 hrs at RT in TBS; for EC50: read-out: EC50 binding affinity to titanium; for beginning of saturation phase of binding to titanium: concentration effect curve of the biotin ELISA. The method, then:
Following synthesis of the mussel peptide by solid phase peptide synthesis (Fmoc/tBu strategy) the binding affinity to titanium was studied.
(§1) For that, titanium slices were etched in order to obtain a freshly oxidized surface. Subsequently, the titanium slices were incubated with various peptide concentrations. Following intensive washing steps titanium-bound peptide was identified with the well-described biotin-streptavidin interaction. […] Moreover, stability of the DOPA peptides was tested in cell supernatant to imitate in vitro conditions. For that, titanium slices were coated with the corresponding biotinylated peptides (concentration=1 μM). Following incubation in SaOS-2 cell supernatant at 37° C. remaining peptide was identified by means of the biotin ELISA. Within a period of 7 days constantly more than 50% of immobilized and biotinylated peptide were detected (FIG. 2C).
Titanium foil (Sigma Aldrich, thickness: 0.127 mm) was cut to round pieces (area=0.43 cm^2) and etched in H2SO4 (30%)/H2O2 (1:1 v/v) for 7 min. Following washing steps with water and TBS buffer (50 mM tris(hydroxymethyl)-aminomethane (Tris), 150 mM NaCl, pH 7.6) the titanium slices were incubated with various concentrations of biotinylated peptides in TBS buffer dissolved for 2 hrs. at RT. Subsequently, the coated slices were washed 5 times with TBS-T buffer (50 mM Tris, 150 mM NaCl, 0.1% Tween 20, pH 7.6) and transferred to new reaction vessels. The following biotin ELISA was performed in accordance with Hassert et al.^3 Zero reading values were obtained with uncoated titanium slices and subtracted from the generated values (absorption per cm^2). The obtained data points were non-linearly fitted with GraphPad Prism 5 software (GraphPadInc.). Error bars are represented as standard error of the mean (SEM) from at least 2 independent experiments.
(In an ELISA, binding on a coated surface is turned into a signal by an enzyme label.)

In data set [2] the test system is SaOS-2 cells. Kind of data set: Cell adhesion assay on peptide-coated titanium (fluorescence microscopy). Format: cell-based. To be noted: 6 h adhesion, serum-free medium; for average cell plane (cell propagation, cell size) / cell morphology / actin cytoskeleton: 1 μM peptide coating; for cell number of adhered cells: normalized to uncoated Ti. The method, then: (§2) To determine the bioactivity of the ligated peptides and their controls cell adhesion studies have been performed. Osteoblast-like cells (SaOS-2) have been sown on etched peptide-coated titanium. All cellular experiments were performed in serum-free medium to prevent false results by adsorption of serum proteins. To study initial cell adhesion the cells were fixed and dyed after 6 h of cultivation to observe morphology and average cell plane and number by means of fluorescence microscopy. […] Indeed, an increase in cell size was observed, slightly higher than on uncoated titanium slices. […] Cells having a fibroblast-like morphology and distinct bundles of fibrils have been found on all RGD-containing peptide coatings. […] In addition to the average cell plane the cell number was determined by counting cells that adhered after 6 h. […] Moreover, a similar tendency as already in the cell plane experiment could be observed. […] It is known that RGD peptides mediate the formation of focal contacts that are decisive for the outer-inner communication between cell and ECM.^6 By immuno-labeling with an anti-vinculin antibody it is possible to visualize vinculin, a protein involved in building up focal adhesion.
Titanium foil was stamped and etched as already described. Following washing steps with water and PBS buffer (Dulbeccos phosphate) the titanium slices were sterilized with 70% ethanol/water (v/v) in an ultrasonic bath for 15 min. After having washed twice with PBS buffer the titanium slices were incubated overnight in a 48-well plate at RT with 300 μL of 1 μM of a peptide solution in PBS, PBS (negative control), and fibronectin in PBS (25 μg/mL, positive control).
Coated titanium slices (48-well plate) were washed twice with PBS. SaOS-2 cells were re-suspended in medium without FCS. Thereafter, the cells were sown on the coated titanium slices (50,000-90,000 cells per well, in this range we didn't find any influence on the cell plane for respective coating). Following adhesion for 6 hrs. the slices were washed with PBS and the cells were fixed with 4% paraformaldehyde in PBS for 30 min. Subsequently, the adhered cells were washed and permeabilized with 1% Triton X-100 in PBS for 1 min. Thereafter, the cells were dyed with phalloidin-tetramethylrhodamine isothiocyanate (phalloidin-TRITC) and HOECHST 33342 (both Sigma Aldrich). For fluorescence microscopy (Axio Observer microscope, Zeiss) the slices were attached to slides. For each slice (triplicate) 3 representative images at 20 fold and 10 fold magnification were made. Then, the average cell plane was determined by edging (Software Axio Vision 4.8, Zeiss) each single cell on one representative image (20 fold) each of each triplicate. The determined values were summarized from 3 independent experiments and represented as mean±SEM. To determine the cell number, three 10 fold magnified images were evaluated by means of ImageJ software and normalized to titanium=1, n≥3.

Data set [3] deals with SaOS-2 cells. Kind of data set: Proliferation assay (BrdU) on coated titanium. It is filed as cell-based. The following applies: 24 h incorporation after 2 d of cell adhesion, normalized to uncoated titanium. How it is done: (§3) In addition to initial cell adhesion after 6 h cell viability and proliferation after 3 d was studied. Incorporation of the bromine-labeled thymidine analogue bromodeoxyuridine (BrdU) within 24 h, after 2 d of cell adhesion, was used to determine proliferation of cells on coated titanium. No significant changes could be found between the immobilized peptides and controls (FIG. 5C). However, a peptide coating is advantageous compared to untreated titanium. […] Cell viability was studied after 3 days of adhesion by reacting resazurin to resorufin by living cells. […] This fact emphasizes the cell repellent, but at the same time not toxic properties of the PEG. […] Thus, the advantageous approach to present both cell binding peptides in one molecule is confirmed.
Cells were sown onto coated and washed titanium slices in FCS-free medium in a 96-well plate. After one day the medium was replaced by FCS-containing medium. On day 2 bromodeoxyuridine (BrdU) was added to each well for labelling (colorimetric Cell Proliferation kit, Roche). After 24 hrs. of incorporation of the label the cells were washed and fixed. […] Binding of the antibody was detected with the addition of a 3,3′,5,5′-tetramethylbenzidine (TMB) solution and H2O2(Calbiochem). […] The measured values (mean±SEM) were evaluated from 4 independent experiments performed in triplicates and normalized to uncoated titanium.

For data set [4], the system named is SaOS-2 cells. Kind of data set: Viability assay (resazurin) on coated titanium. Format: cell-based. To be noted: after 3 days of adhesion. The method, then: as §3
Cells were sown onto coated and washed titanium slices in FCS-free medium in a 96-well plate. After one day the medium was replaced by FCS-containing medium. On day 3 20 μL of CellTiderBlue® (Promega) were added to each well. After 2 hrs. of incubation the reaction of resazurin to resorufin was determined by means of fluorescence intensity measurement at 560Ex/590Em nm. The measured values (mean±SEM) were evaluated from 4 independent experiments performed in triplicate.

For data set [5], the system named is SaOS-2 cells. Kind of data set: Immunolabelling of focal contacts (vinculin) on peptide coatings. It is filed as cell-based. To be noted: 24 hrs adhesion, anti-vinculin antibody. The method, then:
as §2
Cells (40,000 per well) were sown onto coated and washed titanium slices as already described. After 1 d of cell adhesion the slices were washed twice with PBS. All of the following washing steps were performed with 0.05% (v/v) Tween-20 in PBS. Thereafter, the cells were fixed and permeabilized as already described. To block unspecific interactions the slices were incubated with 1% bovine serum albumin (BSA) in PBS for 40 min. Subsequently, the cells were incubated with a murine monoclonal antibody against vinculin (Millipore, staining kit, 1:200) for 1 hr. at RT. Thereafter, the cells were washed and labeled with phalloidin-TRITC and a fluoresceinisothiocyanate (FITC) conjugated goat anti-mouse antibody (Millipore, 1:100) in 1% (v/v) BSA in PBS for 2 hr. Following a further washing step the nucleus was dyed with 4′,6-diamidino-2-phenylindol (DAPI, Millipore) in PBS for 15 min. Before the slices were attached to slides they were washed three times for 10 min. each. Fluorescence microscopy was performed on an Axio Observer microscope and an ApoTome Imaging System (Zeiss).

A short description of data set [6]: Stability test by biotin ELISA of peptides immobilized on titanium, in SaOS-2 cell supernatant. It is filed as in vitro ADME. The following applies: titanium coated at 1 μM, 37° C. How it is done:
as §1
Titanium slices were etched as described and incubated overnight with 1 μM of peptide solutions in TBS buffer at RT. Subsequently, the coated slices were washed 5 times with TBS-T buffer and transferred to new reaction vessels. Thereafter, the titanium slices were incubated with cell supernatant (of SaOS-2 cells after 2 days of cell cultivation) at 37° C. for certain times. To detect […], biotinylated peptide on the surface the titanium slices were washed 4 times with TBS-T and once with TBS and the biotin ELISA was performed as described. Zero reading values were obtained by uncoated titanium slices and subtracted from the generated data. The obtained measuring values were normalized to the value measured at 0 min. Error bars are represented as standard error of the mean (SEM) from at least 2 independent experiments (double determination).

The term EC50 denotes the midpoint of the concentration-response curve. P*-T-Y-K-NH2 [bio-(−) mefp-1]: in data set [1], the “pEC50 binding affinity to titanium” value came to 4.6±0.1 and the concentration giving a half-maximal response (EC50) was greater than 10000 nM.
As to “C-Peg-Y*-K(c[RGDfK])-Y*-Peg-G*(K(N3)-FHRRIKA-NH2)-βA-NH2 [MP-RGD-HBP]”, in data set [2], the “average cell plane (cell propagation, cell size)” value (“average cell plane” below) is on record as “highest average cell plane” and the “cell morphology / actin cytoskeleton” value is reported as “distinctive, parallel actin filaments have formed”. Besides, the “cell proliferation (BrdU incorporation)” value in data set [3] is “slightly increased cell proliferation”. Moreover, in data set [4], the “cell viability (resazurin to resorufin)” value is reported as “best result among all synthesized peptides”. Besides, the “formation of focal adhesion contacts (vinculin)” value (shortened to “formation”) in data set [5] is “line-like adhesion contacts (green) were formed; also recorded: slight increase in focal complexes”.
As for “C-Peg-Y*-K(c[RGDfK])-Y*-Peg-G*-βA-NH2 [MP-RGD]”, the “average cell plane” value in data set [2] is given as “average cell size comparable to the naturally occurring ECM protein fibronectin”. Also, the “formation” value in data set [5] is “line-like adhesion contacts (green) were formed”.
Regarding C-Peg-Y*-K-Y*-Peg-G*-βA-NH2 [MP], in data set [6], the “stability on titanium, comparison of peptides” value (“stability on titanium” below) is reported as “tendency to a higher stability”. Further, in data set [2], the “average cell plane” value was “smallest cell propagation”; the “cell morphology / actin cytoskeleton” value was “rather round shape with slightly formed cytoskeleton”; the “cell number of adhered cells” value is reported as “smallest cell number”. In addition, the “cell viability (resazurin to resorufin)” value in data set [4] is “more living cells could be analyzed on this coating than on titanium”. For the same substance, the “formation” value in data set [5] is reported as “a few or no focal adhesion contacts”. Further, in data set [1], the “pEC50 binding affinity to titanium” value was 7.6±0.1, the EC50 was 23.6 nM and the “beginning of saturation phase of binding to titanium” value is “sub-μM range”.
For “Bio-X-X-A-K-P*-S-Y*-P*-P*-T-Y*-K-NH2 [mefp-1]”, the “stability on titanium” value in data set [6] is listed as “no significant differences”. In addition, in data set [1], the “pEC50 binding affinity to titanium” value is recorded as 8.2±0.1, the EC50 turned out to be 6.4 nM and the “beginning of saturation phase of binding to titanium” value is “sub-μM range”.
With “C-Peg-Y*-K-Y*-Peg-G*(K(N3)-FHRRIKA-NH2)-βA-NH2 [MP-HBP]”, in data set [2], the “average cell plane” value is “increase of cell propagation compared with MP and uncoated titanium”; the “cell morphology / actin cytoskeleton” value was “only formed a few actin filaments and adhered in irregular cell shapes”. Besides, the “formation” value in data set [5] is given as “a few or no focal adhesion contacts”.
Regarding “Bio-X-X-C-Peg-Y*-K-Y*-Peg-G*-βA-NH2 [bio-MP]”, in data set [6], the “stability on titanium” value is given as “no significant differences”.
Turning to c[RGDfK(dienophile)], the “cell number of adhered cells” value in data set [2] is “increased to a greater extent than on HBP”.

These data come from patent US10787485B2, “Peptide for coating surfaces” (Universität Leipzig, priority 2015, dated 2020).
